Our source for the inhibition values is ChEMBL document CHEMBL5030528, “Xanthine Derivatives Reveal an Allosteric Binding Site in Methylenetetrahydrofolate Dehydrogenase 2 (MTHFD2)” (J Med Chem, 2021).

Activity calls are given as the source filed them. No cut-off for these calls is given here.

Test [1] concerns the target T1, Bifunctional methylenetetrahydrofolate dehydrogenase/cyclohydrolase, mitochondrial (Homo sapiens) (UniProt P13995).
T1 sequence (whole entry): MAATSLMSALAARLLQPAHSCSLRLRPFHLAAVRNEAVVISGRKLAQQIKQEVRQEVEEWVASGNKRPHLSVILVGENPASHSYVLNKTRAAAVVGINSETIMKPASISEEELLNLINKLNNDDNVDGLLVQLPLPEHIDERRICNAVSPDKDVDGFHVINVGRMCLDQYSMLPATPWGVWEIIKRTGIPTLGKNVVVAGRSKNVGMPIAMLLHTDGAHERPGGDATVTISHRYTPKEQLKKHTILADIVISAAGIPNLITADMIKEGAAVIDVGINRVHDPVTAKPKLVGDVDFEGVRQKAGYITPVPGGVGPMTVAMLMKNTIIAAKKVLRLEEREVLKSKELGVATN
Nature of the test: Uncompetitive inhibition of C-terminal His-tagged human MTHFD2 (36 to 350 residues) expressed in insect cells assessed as decrease in Km by using varying levels of tetrahydrofolate as substrate by double-reciprocal plot analysis. To be noted: time 10.0 min.

The target of test [2] is T1, Bifunctional methylenetetrahydrofolate dehydrogenase/cyclohydrolase, mitochondrial (Homo sapiens). Put plainly: Uncompetitive inhibition of C-terminal His-tagged human MTHFD2 (36 to 350 residues) expressed in insect cells assessed as decrease in Vmax using varying levels of tetrahydrofolate as substrate by double-reciprocal plot analysis. To be noted: time 10.0 min.

In the case of `Cc1cc(Nc2nc3c(c(=O)n(Cc4cc5c(Cl)cccc5[nH]4)c(=O)n3C)n2C)nc(CCC(=O)O)n1`, the inhibition entry in test [1] and in test [2] was “Active” throughout.
